US10793563B2, “GCN2 inhibitors and uses thereof” (Merck Patent GmbH, priority 2018, dated 2020)

Tests used:
GCN2 kinase = GCN2 kinase (Homo sapiens (Human), UniProt Q9P2K8); experiment: GCN2 Enzyme Inhibition Assay (Transcreener ADP2 fluorescence polarization); assay type: biochemical; settings: 280 μM ATP, 200 μM (RS)7 peptide, 4 nM GCN2, 25° C.
Summary of the method: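 Transcreener ADP2 fluorescence polarization detection of ADP from 4 nM GCN2 with (RS)7 substrate in 25 mM Tris-HCl pH 7.5, 50 mM NaCl, 10 mM MgCl2, 1 mM DTT. Compound pre-incubated with enzyme 10 min at 25 °C; reaction started by ATP, run 1 h at 25 °C. IC50 and Ki(app) by tight-binding fit.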

[1] = molecular target: intracellular GCN2 (phosphorylation of the GCN2 substrate eIF2α) (Homo sapiens (Human), UniProt Q9P2K8); experiment: GCN2 Cellular Inhibition Assay (AlphaScreen SureFire P-eIF2α Ser51, borrelidin-treated U2OS cells); assay type: cell-based; settings: 10 μM borrelidin, 1 h, phosphorylated eIF2α Ser51, read-out: GCN2 Biomarker (IC50)
Chain of intracellular GCN2 (phosphorylation of the GCN2 substrate eIF2α) (Q9P2K8 whole entry): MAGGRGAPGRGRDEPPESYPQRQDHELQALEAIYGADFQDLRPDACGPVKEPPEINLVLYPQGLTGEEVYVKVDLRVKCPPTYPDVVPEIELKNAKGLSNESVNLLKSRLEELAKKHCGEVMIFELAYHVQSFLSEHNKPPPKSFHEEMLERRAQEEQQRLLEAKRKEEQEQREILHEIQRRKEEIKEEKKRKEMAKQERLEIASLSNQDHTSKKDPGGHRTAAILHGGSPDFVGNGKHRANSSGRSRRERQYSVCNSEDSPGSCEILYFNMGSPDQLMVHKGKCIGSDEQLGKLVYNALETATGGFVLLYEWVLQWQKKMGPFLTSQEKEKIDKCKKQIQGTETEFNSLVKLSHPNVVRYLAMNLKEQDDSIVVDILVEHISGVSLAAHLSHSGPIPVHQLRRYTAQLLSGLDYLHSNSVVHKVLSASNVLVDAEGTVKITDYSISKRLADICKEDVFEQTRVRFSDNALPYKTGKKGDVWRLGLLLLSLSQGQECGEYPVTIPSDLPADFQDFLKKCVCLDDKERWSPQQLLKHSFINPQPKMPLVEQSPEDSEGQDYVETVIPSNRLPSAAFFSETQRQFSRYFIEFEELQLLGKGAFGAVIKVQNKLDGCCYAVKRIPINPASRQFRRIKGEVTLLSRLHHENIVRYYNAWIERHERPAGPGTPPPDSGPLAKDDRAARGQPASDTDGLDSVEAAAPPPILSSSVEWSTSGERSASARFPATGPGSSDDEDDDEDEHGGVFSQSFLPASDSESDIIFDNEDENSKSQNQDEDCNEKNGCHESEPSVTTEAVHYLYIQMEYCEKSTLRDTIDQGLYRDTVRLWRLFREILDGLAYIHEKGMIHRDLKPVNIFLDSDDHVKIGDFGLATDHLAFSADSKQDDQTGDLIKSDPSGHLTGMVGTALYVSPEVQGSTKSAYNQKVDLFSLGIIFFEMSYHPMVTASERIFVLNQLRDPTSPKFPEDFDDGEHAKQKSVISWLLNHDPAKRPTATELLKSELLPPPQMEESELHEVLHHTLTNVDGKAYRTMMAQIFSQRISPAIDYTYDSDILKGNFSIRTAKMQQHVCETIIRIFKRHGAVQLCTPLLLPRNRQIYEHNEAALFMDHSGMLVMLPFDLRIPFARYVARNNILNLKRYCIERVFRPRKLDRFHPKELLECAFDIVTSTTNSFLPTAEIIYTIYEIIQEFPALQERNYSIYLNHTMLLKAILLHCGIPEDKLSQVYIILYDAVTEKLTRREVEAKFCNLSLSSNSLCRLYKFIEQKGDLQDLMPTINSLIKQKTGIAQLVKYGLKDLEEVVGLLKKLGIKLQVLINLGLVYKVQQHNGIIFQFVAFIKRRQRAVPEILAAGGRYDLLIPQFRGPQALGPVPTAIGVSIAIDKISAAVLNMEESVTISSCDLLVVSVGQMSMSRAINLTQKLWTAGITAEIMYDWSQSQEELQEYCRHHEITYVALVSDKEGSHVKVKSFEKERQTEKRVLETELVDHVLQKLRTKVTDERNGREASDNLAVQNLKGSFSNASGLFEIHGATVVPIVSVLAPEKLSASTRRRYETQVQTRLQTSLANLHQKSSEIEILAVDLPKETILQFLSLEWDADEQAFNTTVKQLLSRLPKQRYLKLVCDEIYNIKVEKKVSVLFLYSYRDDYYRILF
Summary of the method: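 U2OS cells adhered overnight, then given compound (top 40 μM, 4-fold serial dilutions) plus 10 μM borrelidin for 1 h at 37 °C. Lysates assayed for eIF2α phospho-Ser51 by AlphaScreen SureFire; % inhibition versus borrelidin-only wells.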

Chain of GCN2 kinase (Q9P2K8 whole entry): as above

IC50 (GCN2 kinase) [nM]	IC50 [1] [nM]	SMILES
100 to 1000	500 to 5000	CC(C)n1ccc(C(=O)N2[C@H](C)CN(c3ccnc(-c4cnc5ccc(C(F)(F)F)cn45)n3)C[C@@H]2C)n1 [I-401, (cis-2,6-dimethyl-4-(2-(6-(trifluoromethyl)imidazo[12-a]pyridin-3-yl)pyrimidin-4-yl)piperazin-1-yl)(1-isopropyl-1H-pyrazol-3-yl)methanone]
100 to 1000	500 to 5000	O=C(C1CC(F)(F)C1)N1CCN(c2ccnc(-c3cnc4ccc(C(F)(F)F)cn34)n2)CC1c1cn[nH]c1 (stereo not drawn) [I-402, (2-(1H-pyrazol-4-yl)-4-(2-(6-(trifluoromethyl)imidazo[1,2-a]pyridin-3-yl)pyrimidin-4-yl)piperazin-1-yl)(3,3-difluorocyclobutyl)methanone]
100 to 1000	500 to 5000	C[C@@H]1CN(c2ccnc(-c3cnc4ccc(C(F)(F)F)cn34)n2)C[C@H](C)N1C(=O)C1CC1 [I-403, cyclopropyl(cis-2,6-dimethyl-4-(2-(6-(trifluoromethyl)imidazo[1,2-a]pyridin-3-yl)pyrimidin-4-yl)piperazin-1-yl)methanone]
10 to 100	500 to 5000	Cc1n[nH]nc1[C@H]1C[C@@H](C)CN(c2ccnc(-c3cnc4ccc(C(F)(F)F)cn34)n2)C1 [I-408, 3-(4-((3R,5S)-3-methyl-5-(5-methyl-2H-1,2,3-triazol-4-yl)piperidin-1-yl)pyrimidin-2-yl)-6-(trifluoromethyl)imidazo[1,2-a]pyridine]
10 to 100	500 to 5000	CC(=O)N1[C@H](C)CN(c2ccnc(-c3cnc4ccc(C(F)(F)F)cn34)n2)C[C@@H]1C [I-414, 1-(cis-2,6-dimethyl-4-(2-(6-(trifluoromethyl)imidazo[1,2-a]pyridin-3-yl)pyrimidin-4-yl)piperazin-1-yl)ethan-1-one]
100 to 1000	> 5000	O=C(c1cnn(C2COC2)c1)N1CCN(c2ccnc(-c3cnc4ccc(C(F)(F)F)cn34)n2)CC1c1cn[nH]c1 (stereo not drawn) [I-417, (2-(1H-pyrazol-4-yl)-4-(2-(6-(trifluoromethyl)imidazo[1,2-a]pyridin-3-yl)pyrimidin-4-yl)piperazin-1-yl)(1-(oxetan-3-yl)-1H-pyrazol-4-yl)methanone]
10 to 100	500 to 5000	Cn1cc(C(=O)N2CCN(c3ccnc(-c4cnc5ccc(C(F)(F)F)cn45)n3)CC2c2cn[nH]c2)cn1 (stereo not drawn) [I-418, (2-(1H-pyrazol-4-yl)-4-(2-(6-(trifluoromethyl)imidazo[1,2-a]pyridin-3-yl)pyrimidin-4-yl)piperazin-1-yl)(1-methyl-1H-pyrazol-4-yl)methanone]
10 to 100	500 to 5000	Cn1nccc1C(=O)N1CCN(c2ccnc(-c3cnc4ccc(C(F)(F)F)cn34)n2)CC1c1cn[nH]c1 (stereo not drawn) [I-419, (2-(1H-pyrazol-4-yl)-4-(2-(6-(trifluoromethyl)imidazo[1,2-a]pyridin-3-yl)pyrimidin-4-yl)piperazin-1-yl)(1-methyl-1H-pyrazol-5-yl)methanone]
10 to 100	500 to 5000	CC(O)C(=O)N1CCN(c2ccnc(-c3cnc4ccc(C(F)(F)F)cn34)n2)CC1c1cn[nH]c1 (stereo not drawn) [I-420, 1-(2-(1H-pyrazol-4-yl)-4-(2-(6-(trifluoromethyl)imidazo[1,2-a]pyridin-3-yl)pyrimidin-4-yl)piperazin-1-yl)-2-hydroxypropan-1-one]
10 to 100	> 5000	O=C(CO)N1CCN(c2ccnc(-c3cnc4ccc(C(F)(F)F)cn34)n2)CC1c1cn[nH]c1 (stereo not drawn) [I-421, 1-(2-(1H-pyrazol-4-yl)-4-(2-(6-(trifluoromethyl)imidazo[1,2-a]pyridin-3-yl)pyrimidin-4-yl)piperazin-1-yl)-2-hydroxyethan-1-one]
100 to 1000	> 5000	C[C@@H]1CN(c2ccnc(-c3cnc4ccc(C(F)(F)F)cn34)n2)C[C@H](C)N1C(=O)c1ccn(C2CC2)n1 [I-440, (1-cyclopropyl-1H-pyrazol-3-yl)(cis-2,6-dimethyl-4-(2-(6-(trifluoromethyl)imidazo[1,2-a]pyridin-3-yl)pyrimidin-4-yl)piperazin-1-yl)methanone]
10 to 100	500 to 5000	O=C(c1cnoc1)N1CCN(c2ccnc(-c3cnc4ccc(C(F)(F)F)cn34)n2)CC1c1cn[nH]c1 (stereo not drawn) [I-444, (2-(1H-pyrazol-4-yl)-4-(2-(6-(trifluoromethyl)imidazo[1,2-a]pyridin-3-yl)pyrimidin-4-yl)piperazin-1-yl)(isoxazol-4-yl)methanone]
10 to 100	500 to 5000	Cn1cnc(C(=O)N2CCN(c3ccnc(-c4cnc5ccc(C(F)(F)F)cn45)n3)CC2c2cn[nH]c2)c1 (stereo not drawn) [I-446, (2-(1H-pyrazol-4-yl)-4-(2-(6-(trifluoromethyl)imidazo[1,2-a]pyridin-3-yl)pyrimidin-4-yl)piperazin-1-yl)(1-methyl-1H-imidazol-4-yl)methanone]

The remaining lines, values behind:

SMILES	IC50 (GCN2 kinase) [nM]	IC50 [1] [nM]
C[C@@H](NS(C)(=O)=O)[C@H]1CN(c2ccnc(-c3cnc4ccc(C(F)(F)F)cn34)n2)CCO1 [I-406, N—((R)-1-((R)-4-(2-(6-(trifluoromethyl)imidazo[1,2-a]pyridin-3-yl)pyrimidin-4-yl)morpholin-2-yl)ethyl)methanesulfonamide]	10 to 100	500 to 5000
C[C@H](NS(C)(=O)=O)[C@@H]1CN(c2ccnc(-c3cnc4ccc(C(F)(F)F)cn34)n2)CCO1 [I-407, N—((S)-1-((S)-4-(2-(6-(trifluoromethyl)imidazo[1,2-a]pyridin-3-yl)pyrimidin-4-yl)morpholin-2-yl)ethyl)methanesulfonamide]	10 to 100	500 to 5000
FC(F)(F)c1ccc2ncc(-c3nccc(N4CCCC5(CNC5)C4)n3)n2c1 [I-413, 6-(2-(6-(trifluoromethyl)imidazo[1,2-a]pyridin-3-yl)pyrimidin-4-yl)-2,6-diazaspiro[3.5]nonane]	100 to 1000	> 5000
O=C(CCn1ccnc1)N1CCN(c2ccnc(-c3cnc4ccc(C(F)(F)F)cn34)n2)CC1c1cn[nH]c1 (stereo not drawn) [I-422, 1-(2-(1H-pyrazol-4-yl)-4-(2-(6-(trifluoromethyl)imidazo[1,2-a]pyridin-3-yl)pyrimidin-4-yl)piperazin-1-yl)-3-(1H-imidazol-1-yl)propan-1-one]	10 to 100	> 5000
NC(=O)[C@@H]1CN(c2ccnc(-c3cnc4cc(F)c(Cl)cn34)n2)CCN1C1CC1 [I-424, (S)-4-(2-(6-chloro-7-fluoroimidazo[1,2-a]pyridin-3-yl)pyrimidin-4-yl)-1-cyclopropylpiperazine-2-carboxamide]	10 to 100	500 to 5000
Cc1[nH]ncc1C1CC(F)CN(c2ccnc(-c3cnc4cc(F)c(Cl)cn34)n2)C1 (stereo not drawn) [I-426, 6-chloro-7-fluoro-3-(4-(3-fluoro-5-(5-methyl-1H-pyrazol-4-yl)piperidin-1-yl)pyrimidin-2-yl)imidazo[1,2-a]pyridine]	10 to 100	500 to 5000
O=C(c1cnon1)N1CCN(c2ccnc(-c3cnc4ccc(C(F)(F)F)cn34)n2)CC1c1cn[nH]c1 (stereo not drawn) [I-441, (2-(1H-pyrazol-4-yl)-4-(2-(6-(trifluoromethyl)imidazo[1,2-a]pyridin-3-yl)pyrimidin-4-yl)piperazin-1-yl)(1,2,5-oxadiazol-3-yl)methanone]	10 to 100	> 5000
O=C(c1cn[nH]n1)N1CCN(c2ccnc(-c3cnc4ccc(C(F)(F)F)cn34)n2)CC1c1cn[nH]c1 (stereo not drawn) [I-442, (2-(1H-pyrazol-4-yl)-4-(2-(6-(trifluoromethyl)imidazo[1,2-a]pyridin-3-yl)pyrimidin-4-yl)piperazin-1-yl)(2H-1,2,3-triazol-4-yl)methanone]	10 to 100	500 to 5000
O=C(c1cocn1)N1CCN(c2ccnc(-c3cnc4ccc(C(F)(F)F)cn34)n2)CC1c1cn[nH]c1 (stereo not drawn) [I-443, (2-(1H-pyrazol-4-yl)-4-(2-(6-(trifluoromethyl)imidazo[1,2-a]pyridin-3-yl)pyrimidin-4-yl)piperazin-1-yl)(oxazol-4-yl)methanone]	10 to 100	500 to 5000
O=C(c1c[nH]cn1)N1CCN(c2ccnc(-c3cnc4ccc(C(F)(F)F)cn34)n2)CC1c1cn[nH]c1 (stereo not drawn) [I-445, (2-(1H-pyrazol-4-yl)-4-(2-(6-(trifluoromethyl)imidazo[1,2-a]pyridin-3-yl)pyrimidin-4-yl)piperazin-1-yl)(1H-imidazol-4-yl)methanone]	10 to 100	500 to 5000
CS(=O)(=O)N1CC2(CN(c3ccnc(-c4cnc5ccc(C(F)(F)F)cn45)n3)CCO2)C1 [I-447, 2-(methylsulfonyl)-8-(2-(6-(trifluoromethyl)imidazo[1,2-a]pyridin-3-yl)pyrimidin-4-yl)-5-oxa-2,8-diazaspiro[3.5]nonane]	10 to 100	500 to 5000
CS(=O)(=O)N1CC2(CCCN(c3ccnc(-c4cnc5ccc(C(F)(F)F)cn45)n3)C2)C1 [I-448, 2-(methylsulfonyl)-6-(2-(6-(trifluoromethyl)imidazo[1,2-a]pyridin-3-yl)pyrimidin-4-yl)-2,6-diazaspiro[3.5]nonane]	10 to 100	500 to 5000
FC(F)(F)CCN1CCN(c2ccnc(-c3cnc4ccc(C(F)(F)F)cn34)n2)CC1c1cn[nH]c1 (stereo not drawn) [I-449, 3-(4-(3-(1H-pyrazol-4-yl)-4-(3,3,3-trifluoropropyl)piperazin-1-yl)pyrimidin-2-yl)-6-(trifluoromethyl)imidazo[1,2-a]pyridine]	< 10	< 500
Fc1ccc(CN2CCN(c3ccnc(-c4cnc5ccc(C(F)(F)F)cn45)n3)CC2c2cn[nH]c2)cc1F (stereo not drawn) [I-450, 3-(4-(4-(3,4-difluorobenzyl)-3-(1H-pyrazol-4-yl)piperazin-1-yl)pyrimidin-2-yl)-6-(trifluoromethyl)imidazo[1,2-a]pyridine]	10 to 100	< 500
